Data reported in EP1972333A1, “Stabilised aqueous solutions of ergolin compounds” (Axxonis Pharma AG, priority 2007, dated 2008).
Values after ≈ are worked out from the molar mass of the structure shown. Read-outs that look alike come from different tables or passages of the source.

Key:
[1] = Solubility of free ergoline compounds in water / phosphate-buffered solution; format: physicochemical; details: for solubility: free compound, read-out: Löslichkeit; for Löslichkeit in Wasser: compared with Lisurid
Procedure: Für strukturverwandte Wirkstoffe, welche auf derselben Grundstruktur basieren, können ähnliche physikalischchemische Aktivitäten in vitro, in vivo sowie in klinischen Studien erwartet werden. Die Lisuridderivate Tergurid und Protergurid weisen Alkylsubstituenten am Stickstoff (N6) der Grundstruktur sowie eine Einfachbindung zwischen den Positionen 9 und 10 auf. […] Die Löslichkeit des freien Protergurid beträgt beispielsweise 2.6 mg/100 mL in einer phosphatgepufferten Lösung (pH 7.4). Die Löslichkeit des freien Lisurids kann entsprechend auf 2.2 mg/100 mL abgeschätzt werden, wobei dieser Wert aus den Löslichkeitsdaten der jeweiligen Wirkstoffe/Wirkstoffsalze kalkuliert wurde (Zimmermann I (1983) International Journal of Pharmaceutics 13: 57-65).

[2] = Stability of Lisuridhydrogenmaleat in citrate-buffered aqueous solutions (RP-HPLC, UV detection); details: citrate buffer; for Färbung / degraded at 4320 h: no cosolvent; for Mittlere Fläche (Lisuridpeakfläche zur totalen Peakfläche des Chromatogramms): t 0 d; for degraded at 4320 h: 180 Tage, protected from light
[3] = 60°C, one week, in the dark, 10080 min
Procedure: Als Additive wurden Propylenglykol und Cremophor ELP in Konzentrationen zwischen 1.00 und 10.00% eingesetzt. […] Die Lösungen wurden im Dunkeln in Glasbehältern bei 60°C für eine Woche aufbewahrt.

[4] = for Mittlere Fläche (Lisuridpeakfläche zur totalen Peakfläche des Chromatogramms): 9% Propylenglykol, no buffer, 2 mg/3 mL
Procedure: Die Wirkstoffkonzentration wurde auf 2 mg pro 3 mL eingestellt. Es wurde kein Puffersystem hinzugegeben. Das weitere Vorgehen umfasste das Einwiegen von 33.3 mg des Wirkstoffs in einen skalierten 50 mL Kolben, anschließende Zugabe des Propylenglykols (4.5g) sowie die Beigabe von 40 mL Wasser. Der Kolben wurde für mehrere Minuten geschüttelt und anschließend Ultraschall ausgesetzt, bis der Wirkstoff vollständig gelöst war. Der Kolben wurde auf Raumtemperatur abgekühlt und bis zur Markierung mit bidestilliertem Wasser aufgefüllt. Abschließend wurde zur Gewährleistung der Homogenität für eine weitere Minute geschüttelt. Die Lösung wurde in durchsichtige Glasampullen von 1 ml Volumen abgefüllt. Diese wurden luftdicht verschlossen und zum Lichtschutz mit Aluminiumfolie umwickelt. Die Ampullen wurden jeweils bei 6 bis 8°C, 25°C und 40°C aufbewahrt.

[5] = Solubility improvement by cosolvent; format: physicochemical; details: Propylenglykol as low-dosed additive (weniger als 10%)
[6] = oral, daily; 17th Report of the Joint FAO/WHO Expert Committee on Food Additives, 1974; cited from earlier work

CCN(CC)C(=O)N[C@H]1C=C2c3cccc4[nH]cc(c34)C[C@H]2N(C)C1 [Lisurid]
solubility ([1]; estimated, calculated from solubility data of the drugs/drug salts (Zimmermann 1983)): ~22 µg/mL

CCN(CC)C(=O)N[C@H]1C=C2c3cccc4[nH]cc(c34)C[C@H]2N(C)C1 [Lisuridhydrogenmaleat]
Färbung ([2]; 40°C, after 30 Tagen): signifikante gelbe Färbung | Färbung ([2]; 40°C, after weiteren 60 Tagen (following the first 30)): Braun | Mittlere Fläche (Lisuridpeakfläche zur totalen Peakfläche des Chromatogramms) ([2]; Erhöhte Temperatur (40°C), pH 3.5, 2 mg/3 mL): 99,87 Prozent | Mittlere Fläche (Lisuridpeakfläche zur totalen Peakfläche des Chromatogramms) ([2]; Erhöhte Temperatur (40°C), pH 4.5, 2 mg/3 mL): 99,79 Prozent | Mittlere Fläche (Lisuridpeakfläche zur totalen Peakfläche des Chromatogramms) ([2]; Erhöhte Temperatur (40°C), pH 5.1, 2 mg/3 mL): 100,00 Prozent | Mittlere Fläche (Lisuridpeakfläche zur totalen Peakfläche des Chromatogramms) ([2]; Kühlschrank (6-8°C), pH 3.5, 2 mg/3 mL): 99,87 Prozent | Mittlere Fläche (Lisuridpeakfläche zur totalen Peakfläche des Chromatogramms) ([2]; Kühlschrank (6-8°C), pH 4.5, 2 mg/3 mL): 99,79 Prozent | Mittlere Fläche (Lisuridpeakfläche zur totalen Peakfläche des Chromatogramms) ([2]; Kühlschrank (6-8°C), pH 5.1, 2 mg/3 mL): 100,00 Prozent | Mittlere Fläche (Lisuridpeakfläche zur totalen Peakfläche des Chromatogramms) ([2]; Raumtemperatur (25°C), pH 3.5, 2 mg/3 mL): 99,87 Prozent | Mittlere Fläche (Lisuridpeakfläche zur totalen Peakfläche des Chromatogramms) ([2]; Raumtemperatur (25°C), pH 4.5, 2 mg/3 mL): 99,79 Prozent | Mittlere Fläche (Lisuridpeakfläche zur totalen Peakfläche des Chromatogramms) ([2]; Raumtemperatur (25°C), pH 5.1, 2 mg/3 mL): 100,00 Prozent | degraded at 4320 h ([2]; Wirkstoff zersetzt, 40°C): ≤ 30% | degraded at 4320 h ([2]; Zersetzung, Kühlschrank (6-8°C)): ~0.7% | remaining at 720 h ([2]; pH 3.5, Mittlere Fläche (Lisuridpeakfläche zur totalen Peakfläche des Chromatogramms), Erhöhte Temperatur (40°C), pH 3.5, t 30 d, 2 mg/3 mL): 90.4% | remaining at 2160 h ([2]; pH 3.5, Mittlere Fläche (Lisuridpeakfläche zur totalen Peakfläche des Chromatogramms), Erhöhte Temperatur (40°C), pH 3.5, t 90 d, 2 mg/3 mL): 73.4% | remaining at 4320 h ([2]; pH 3.5, Mittlere Fläche (Lisuridpeakfläche zur totalen Peakfläche des Chromatogramms), Erhöhte Temperatur (40°C), pH 3.5, t 180 d, 2 mg/3 mL): 69.9% | remaining at 2160 h ([2]; pH 4.5, Mittlere Fläche (Lisuridpeakfläche zur totalen Peakfläche des Chromatogramms), Erhöhte Temperatur (40°C), pH 4.5, t 90 d, 2 mg/3 mL): 90.4% | remaining at 4320 h ([2]; pH 4.5, Mittlere Fläche (Lisuridpeakfläche zur totalen Peakfläche des Chromatogramms), Erhöhte Temperatur (40°C), pH 4.5, t 180 d, 2 mg/3 mL): 87.7% | remaining at 4320 h ([2]; pH 5.1, Mittlere Fläche (Lisuridpeakfläche zur totalen Peakfläche des Chromatogramms), Erhöhte Temperatur (40°C), pH 5.1, t 180 d, 2 mg/3 mL): 88% | degraded at 4320 h ([2]; pH 5.1, Zersetzung, Raumtemperatur (25°C), citrate buffer pH 5.1, 4.5, 3.5): 5% | Wirkstoff zerfallen ([3]; 1% Cremophor ELP): 14,3% | Wirkstoff zerfallen ([3]; 10% Cremophor ELP): 21.3% | Wirkstoff zersetzt ([4]; 40°C, 180 Tage, 9% Propylenglykol (cosolvent)): ~10% | Mittlere Fläche (Lisuridpeakfläche zur totalen Peakfläche des Chromatogramms) ([4]; Erhöhte Temperatur (40°C), t 0 d): 99.80 Prozent | Mittlere Fläche (Lisuridpeakfläche zur totalen Peakfläche des Chromatogramms) ([4]; Erhöhte Temperatur (40°C), t 7 d): 99.33 Prozent | Mittlere Fläche (Lisuridpeakfläche zur totalen Peakfläche des Chromatogramms) ([4]; Erhöhte Temperatur (40°C), t 30 d): 97.59 Prozent | Mittlere Fläche (Lisuridpeakfläche zur totalen Peakfläche des Chromatogramms) ([4]; Erhöhte Temperatur (40°C), t 90 d): 94.06 Prozent | Mittlere Fläche (Lisuridpeakfläche zur totalen Peakfläche des Chromatogramms) ([4]; Erhöhte Temperatur (40°C), t 180 d): 89.76 Prozent | Wirkstoff zerfallen ([4]; Kühlschrank (6-8°C), 180 Tage, protected from light, 9% Propylenglykol (cosolvent)): ~0.4% | Mittlere Fläche (Lisuridpeakfläche zur totalen Peakfläche des Chromatogramms) ([4]; Kühlschrank (6-8°C), t 0 d): 99.80 Prozent | Mittlere Fläche (Lisuridpeakfläche zur totalen Peakfläche des Chromatogramms) ([4]; Kühlschrank (6-8°C), t 30 d): 99.67 Prozent | Mittlere Fläche (Lisuridpeakfläche zur totalen Peakfläche des Chromatogramms) ([4]; Kühlschrank (6-8°C), t 90 d): 99.52 Prozent | Mittlere Fläche (Lisuridpeakfläche zur totalen Peakfläche des Chromatogramms) ([4]; Raumtemperatur (25°C), t 0 d): 99.80 Prozent | Mittlere Fläche (Lisuridpeakfläche zur totalen Peakfläche des Chromatogramms) ([4]; Raumtemperatur (25°C), t 30 d): 99.46 Prozent | Mittlere Fläche (Lisuridpeakfläche zur totalen Peakfläche des Chromatogramms) ([4]; Raumtemperatur (25°C), t 90 d): 99.15 Prozent | Mittlere Fläche (Lisuridpeakfläche zur totalen Peakfläche des Chromatogramms) ([4]; Raumtemperatur (25°C), t 180 d): 98.35 Prozent | Löslichkeit des Wirkstoffs [5]: verbesserten Löslichkeit

CC(O)CO (stereo not drawn) [Propylenglykol, 1,2-Propandiol (Propylenglykol)]
geschätzte Menge, welche als tägliche orale Dosis akzeptabel ist [6]: 25 mg/kg kg

CCCN1C[C@@H](NC(=O)N(CC)CC)C[C@@H]2c3cccc4[nH]cc(c34)C[C@H]21 [Protergurid]
Löslichkeit in Wasser [1]: vergleichbare Löslichkeit in Wasser wie Lisurid | solubility ([1]; phosphate-buffered solution, phosphatgepufferte Lösung (pH 7.4)): 26 µg/mL (≈ 70.6 µM)

CCN(CC)C(=O)N[C@H]1C[C@@H]2c3cccc4[nH]cc(c34)C[C@H]2N(C)C1 [Tergurid]
Löslichkeit in Wasser [1]: vergleichbare Löslichkeit in Wasser wie Lisurid
